Tests used:
[1] = system: sweetpotato whitefly adult insects; test: Efficacy test for sweetpotato whitefly biotype B (leaf disk spray); assay type: in vivo, Sweetpotato whitefly (Bemisia tabaci) biotype B; conditions: 5 days after spraying
Description: Each of Compound (1) or Compound (2) and the compounds listed in Table 1 was formulated into a 10% emulsifiable concentrate. The formulations were diluted with water to prepare chemical solutions of given concentrations. A styrol cup (having the diameter of the lid of 7.5 cm, and the height of 4 cm) was filled with tap water, and a lid having a hole in its center was placed on the styrol cup, and a filter paper was placed on the lid to absorb tap water. An absorbent cotton (5 cm×5 cm) wetted with tap water was placed on the filter paper, and a leaf disk (having the diameter of 3 cm) made of a common bean leaf was placed on the absorbent cotton. Each of the test containers was treated with a spray solution as was uniformly sprayed by using a spraying apparatus (2.5 ml/cup). The 20 sweetpotato whitefly adult insects were placed on the leaf disk, and a mesh lid was placed over the container to prevent escape of the insects. Examinations were conducted 5 days after spraying, and the percentages of dead insects were calculated according to the calculating equation below. Note that the tests were conducted in duplicate. The percentage of dead insects (%)=the number of dead insects/the number of tested insects×100 To each concentration of chemical solutions, the synergistic effect was calculated from the percentage of dead insects by using Colby's method (Colby S. R. […], Weeds 15, 20-22). […]

[2] = system: fourth instar larvae of cotton bollworms; test: Efficacy test for cotton bollworm (cabbage leaf dip); assay type: in vivo, Cotton bollworm (Helicoverpa armigera); conditions: six days after the treatment
Description: Each of Compound (1) or Compound (2) and the compounds listed in Table 1 was formulated into a 10% emulsifiable concentrate (some compound was formulated into a 25% wettable powder). The formulations were diluted with water containing a spreading agent to prepare chemical solutions of given concentrations. Cabbage leaves were dipped in the chemical solutions for 10 seconds. The dipped cabbage leaves were transferred on filter papers placed in 7 cm petri dishes with one leaf per one petri dish, and the leaves were air dried. After the air drying was completed, the seven fourth instar larvae of cotton bollworms were placed in each petri dish, and then, the petri dishes were placed in an incubator at 25° C. Six days after the treatment, the numbers of dead larvae were checked, and the percentages of dead insects were calculated according to the calculating equation below. Note that the tests were conducted in duplicate. The percentage of dead insects (%)=the number of dead insects/the number of tested insects×100
(§1) To each concentration of chemical solutions, the synergistic effect was calculated from the percentage of dead insects by using Colby's method (Colby S. R. 1976, Weeds 15, 20-22). The calculation method was as follows. E=X+Y−XY/100
(§2) X: an observed value at an x concentration of Chemical A (the percentage of dead insects)
(§3) Y: an observed value at a y concentration of Chemical B (the percentage of dead insects)
(§4) E: the percentage of dead insects expected at the time of a mixed treatment with Chemical A and Chemical B.
(§5) If the observed value was larger than the expected value, there was a synergistic effect; if the expected value was larger than the observed value, there was an antagonist effect; and if the observed value and the expected value were same, there was an additive effect.

varroa mites = test: Efficacy test for varroa mite (coated screw bottle); assay type: in vivo; conditions: 100 μg/tube; 24 hours after placing
Description: The Compound (1) or Compound (2) was adjusted to a given concentration with acetone. After the adjustment, 300 μl of each of the prepared solutions was poured into a 20 ml screw bottle. The solvent was volatilized as the inner surface of the bottle was uniformly coated with the solution, and then the bottle was stored in a cool and dark place overnight. To obtain varroa mites, a blood comb was taken out from a beehive of honey bees on the day before placing of mites, and pupae having varroa mites were taken and placed in a petri dish. The petri dish was stored in an incubator at 34° C. overnight under the total darkness condition, and then only surviving varroa mites were collected. The collected varroa mites were placed in each of the screw bottles that were treated with the above-described chemicals, and the screw bottles were closed with caps. After three hours, the pupae of honey bees were placed in the screw bottles; the screw bottles were closed with caps again, and were stored in an incubator at 34° C. under the total darkness condition. The number of dead insects 24 hours after placing was checked, and the percentages of dead insects were calculated according to the calculating equation below. Note that the tests were conducted in quadruplicate of three in one plot. The percentage of dead insects (%)=the number of dead insects/the number of tested insects×100

[3] = system: third instar larvae of common cutworms; test: Efficacy test for common cutworm (cabbage leaf dip); assay type: in vivo, Common cutworm (Spodoptera litura); conditions: six days after the treatment
Description: Each of Compound (1) or Compound (2) and the compounds listed in Table 1 was formulated into a 10% emulsifiable concentrate (some compound was formulated into a 25% wettable powder). The formulations were diluted with water containing a spreading agent to prepare chemical solutions of given concentrations. Cabbage leaves were dipped in the chemical solutions for 10 seconds. The dipped cabbage leaves were transferred on filter papers placed in 7 cm petri dishes with one leaf per one petri dish, and the leaves were air dried. After the air drying was completed, the seven third instar larvae of common cutworms were placed in each petri dish and then the petri dishes were placed in an incubator at 25° C. Six days after the treatment, the numbers of dead larvae were checked, and the percentages of dead insects were calculated according to the calculating equation below. Note that the tests were conducted in duplicate. The percentage of dead insects (%)=the number of dead insects/the number of tested insects×100
as §1, §2, §3, §4, §5

[4] = system: melon thrips female adult insects; test: Efficacy test for melon thrips female adult insect (leaf disk spray); assay type: in vivo, Melon thrips (Thrips palmi); conditions: 2 days after spraying
Description: Each of Compound (1) or Compound (2) and the compounds listed in Table 1 was formulated into a 10% emulsifiable concentrate. The formulations were diluted with water to prepare chemical solutions of given concentrations. A styrol cup (having the diameter of the lid of 7.5 cm, and the height of 4 cm) was filled with tap water, and a lid having a hole in its center was placed on the styrol cup, and a filter paper was placed on the lid to absorb tap water. An absorbent cotton (5 cm×5 cm) wetted with tap water was placed on the filter paper, and a leaf disk (having the diameter of 1.7 cm) made of a cucumber leaf was placed on the absorbent cotton. The ten melon thrips female adult insects were placed on the leaf disk. Each of the test containers was treated with a spray solution as was uniformly sprayed by using a spraying apparatus (2.5 ml/cup). Examinations were conducted 2 days after spraying, and the percentages of dead insects were calculated according to the calculating equation below. Note that the tests were conducted in duplicate. The percentage of dead insects (%)=the number of dead insects/the number of tested insects×100
To each concentration of chemical solutions, the synergistic effect was calculated from the percentage of dead insects by using Colby's method (Colby S. R. 1976, Weeds 15, 20-22). The calculation method was as follows. E=X+Y−XY/100 […]

[5] = system: Western flower thrips larva; test: Efficacy test for Western flower thrips larva (leaf disk spray); assay type: in vivo, Western flower thrips (Frankliniella occidentalis); conditions: 1 day after spraying
Description: A styrol cup (having the diameter of the lid of 7.5 cm, and the height of 4 cm) was filled with tap water, and a lid having a hole in its center was placed on the styrol cup, and a leaf disk (having the diameter of 1.7 cm) made of a common bean leaf was placed on the lid. Suitable amounts of eggs of Western flower thrips were placed on the leaf disk, and were controlled in a thermostatic chamber for 24 hours to be hatched. Each of Compound (1) or Compound (2) and the compounds listed in Table 1 was formulated into a 10% emulsifiable concentrate. The formulations were diluted with water to prepare chemical solutions of given concentrations. Each of the test containers was treated with a spray solution as was uniformly sprayed by using a spraying apparatus (2.5 ml/cup). Examinations were conducted 1 day after spraying, and the percentages of dead insects were calculated according to the calculating equation below. Note that the tests were conducted in duplicate. The percentage of dead insects (%)=the number of dead insects/the number of tested insects×100
as §1, §2, §3, §4, §5

With O=C1C=C(N(Cc2ccc(Cl)nc2)CC(F)F)CO1 [Compound ci, flupyradifurone, reference compound] the “Percentage of Dead Insect (%) Observed Value” ([1]; 25 ppm) was 40.5%.
In the case of CNC(=O)c1cc(C#N)cc(C)c1NC(=O)c1cc(Br)nn1-c1ncccc1Cl [Compound al, cyantraniliprole, reference compound], the “Percentage of Dead Insect (%) Observed Value” ([2]; 0.25 ppm) is reported as 42.9%.
Cc1cc(C(F)(C(F)(F)F)C(F)(F)F)ccc1NC(=O)c1cccc(I)c1C(=O)NC(C)(C)CS(C)(=O)=O [Compound ca, flubendiamide, reference compound] was tested, and the “Percentage of Dead Insect (%) Observed Value” ([2]; 0.025 ppm) was 35.7%.
In the case of Cc1cc(C2=NOC(c3cc(Cl)cc(Cl)c3)(C(F)(F)F)C2)ccc1C(=O)NCC(=O)NCC(F)(F)F (stereo not drawn) [Compound (1), 4-[5-(3,5-dichlorophenyl)-4,5-dihydro-5-(trifluoromethyl)isoxazole-3-yl]-2-methyl-N-[2-oxo-2-[(2,2,2-trifluoroethyl)amino]ethyl]benzamide], the “Percentage of Dead Insect (%)” value (varroa mites) is reported as 100%, the “Percentage of Dead Insect (%) Observed Value” ([2]; 0.125 ppm) is reported as 28.6% and the “Percentage of Dead Insect (%) Observed Value” ([3]; 0.017 ppm) is reported as 28.6%.
With CCc1nc2cc(C)c(Oc3ccc(OC(F)(F)F)cc3)cc2c(OC(=O)OC)c1C [Compound bx, flometoquin, reference compound] the “Percentage of Dead Insect (%) Observed Value” ([4]; 2.5 ppm) was 52.6%.
With “tetraniliprole [Compound ey, reference compound]” the “Percentage of Dead Insect (%) Observed Value” ([3]; Table 8, 1.7 ppm) was 64.3%.
With CNC(=O)c1cc(Cl)cc(C)c1NC(=O)c1cc(Br)nn1-c1ncccc1Cl [Compound aa, chlorantraniliprole, reference compound] the “Percentage of Dead Insect (%) Observed Value” ([3]; 0.083 ppm) was 21.4%.
Cc1c(COC(=O)[C@@H]2[C@H](/C=C(\Cl)C(F)(F)F)C2(C)C)cccc1-c1ccccc1 (racemic) [Compound q, bifenthrin] was tested, and the “Percentage of Dead Insect (%) Observed Value” ([5]; 20 ppm) was 8.5%.
For CC1(C)[C@H](C(=O)O[C@H](C#N)c2cccc(Oc3ccccc3)c2)[C@@H]1/C=C(\Cl)C(F)(F)F [Compound ar, gamma-cyhalothrin, reference compound], the “Percentage of Dead Insect (%) Observed Value” ([3]; 0.5 ppm) was 35.7%.
For “spinosad [Compound em, reference compound]”, the “Percentage of Dead Insect (%) Observed Value” ([3]; Table 4, 32 ppm) was 60.0%.
In the case of CC(NC(=O)c1cc(Cl)cc(Br)c1NC(=O)c1cc(Br)nn1-c1ncccc1Cl)C1CC1 (stereo not drawn) [Compound am, cyclaniliprole, reference compound], the “Percentage of Dead Insect (%) Observed Value” ([3]; Table 7, 0.17 ppm) is reported as 7.7%.
In the case of CO/N=C\NC(=O)c1ccc(C2=NOC(c3cc(Cl)cc(Cl)c3)(C(F)(F)F)C2)cc1C (stereo not drawn) [Compound (2), (Z)-4-[5-(3,5-dichlorophenyl)-5-trifluoromethyl-4,5-dihydroisoxazole-3-yl]-N-(methoxyiminomethyl)-2-methylbenzamide], the “Percentage of Dead Insect (%) Observed Value” ([5]; 1 ppm) is reported as 29.5%, the “Percentage of Dead Insect (%)” value (varroa mites) is reported as 100% and the “Percentage of Dead Insect (%) Observed Value” ([4]; 5 ppm) is reported as 42.1%. For the same molecule, the “Percentage of Dead Insect (%) Observed Value” ([1]; 5 ppm) was 36.6%, the “Percentage of Dead Insect (%) Observed Value” ([2]; 0.125 ppm) was 35.7% and the “Percentage of Dead Insect (%) Observed Value” ([3]; 0.017 ppm) was 35.7%. The “Percentage of Dead Insect (%) Observed Value” ([3]; Table 4, 0.025 ppm) was 35.7%, the “Percentage of Dead Insect (%) Observed Value” ([3]; Table 5, 0.025 ppm) was 35.7% and the “Percentage of Dead Insect (%) Observed Value” ([3]; Table 6, 0.025 ppm) was 35.7%. The “Percentage of Dead Insect (%) Observed Value” ([3]; Table 7, 0.005 ppm) was 14.3% and the “Percentage of Dead Insect (%) Observed Value” ([3]; Table 8, 0.005 ppm) was 14.3%.
For O=C(NC(=O)c1c(F)cccc1F)Nc1ccc(Oc2ccc(C(F)(F)F)cc2Cl)cc1F [Compound ce, flufenoxuron], the “Percentage of Dead Insect (%) Observed Value” ([5]; 20 ppm) was 27.2%.
In the case of “spinetoram [Compound el, reference compound]”, the “Percentage of Dead Insect (%) Observed Value” ([3]; Table 5, 4.4 ppm) is reported as 78.6%.
With N#Cc1ccc(CC(=NNC(=O)Nc2ccc(OC(F)(F)F)cc2)c2cccc(C(F)(F)F)c2)cc1 (mixture of isomers) [Compound dc, metaflumizone, reference compound] the “Percentage of Dead Insect (%) Observed Value” ([3]; Table 6, 1.7 ppm) was 53.8%.
